Data set [1] concerns the target T1, Histamine H3 receptor (Homo sapiens, UniProt Q9Y5N1). Put plainly: Antagonist activity at human histamine H3 receptor. The class given is functional. The settings on record: read-out: pA2 (converted).
The target of data set [2] is T1, Histamine H3 receptor. Description: Binding affinity to human histamine H3 receptor.
A short description of data set [3]: Mean residence time in mouse brain at 10 mg/kg, ip. Further details: dose 10 mg/kg, route intraperitoneal. The class given is ADME, organism-based.
The target of data set [4] is Sodium-dependent noradrenaline transporter (Homo sapiens, UniProt P23975). Description: Binding affinity to NET.
Data set [5] is described as follows: Mean residence time in mouse plasma at 10 mg/kg, ip. The class given is ADME, organism-based. Further details: dose 10 mg/kg, route intraperitoneal.
Data set [6] in a line: Ratio of log AUC in brain to plasma in mouse at 10 mg/kg, ip. The class given is ADME, organism-based. Further details: dose 10 mg/kg, route intraperitoneal. The conditions noted are these: brain and plasma, read-out: BPR.
Data set [7] is described as follows: Plasma concentration in mouse at 10 mg/kg, ip after 15 mins. The class given is ADME, organism-based. Further details: dose 10 mg/kg, route intraperitoneal.
For data set [8], the target named is Kappa-type opioid receptor (Homo sapiens, UniProt P41145). Put plainly: Binding affinity to kappa opioid receptor.
Data set [9] deals with Sodium-dependent dopamine transporter (Homo sapiens, UniProt Q01959). Description: Binding affinity to DAT.
The test system of data set [10] is Rattus norvegicus. Description: Increase in dopamine level in rat brain at 3 mg/kg, sc within 4 hrs relative to basal level. The class given is ADME, organism-based. More on the design: dose 3 mg/kg, route subcutaneous. The conditions noted are these: in vivo.
Data set [11] concerns Rattus norvegicus. Put plainly: Increase in 5-hydroxytryptamine level in rat brain at 3 mg/kg, sc within 4 hrs relative to basal level. More on the design: dose 3 mg/kg, route subcutaneous. The conditions noted are these: in vivo. The format is ADME, organism-based.
Data set [12] can be described thus: Drug level in mouse brain at 10 mg/kg, ip after 2 hrs. The format is ADME, organism-based. Further details: dose 10 mg/kg, route intraperitoneal. The settings on record: read-out: Drug uptake.

Here are results for 13 compounds from ChEMBL document CHEMBL1140667, “Pyrrolidino-tetrahydroisoquinolines bearing pendant heterocycles as potent dual H3 antagonist and serotonin transporter inhibitors” (Bioorg Med Chem Lett, 2007).

Usually Ki stands for a measure of affinity in units of concentration, obtained from inhibition or displacement. Read a low Ki as higher affinity. A word on the MRT: it is the average time that molecules of a dose stay in the body.

T1 sequence (Q9Y5N1 whole entry): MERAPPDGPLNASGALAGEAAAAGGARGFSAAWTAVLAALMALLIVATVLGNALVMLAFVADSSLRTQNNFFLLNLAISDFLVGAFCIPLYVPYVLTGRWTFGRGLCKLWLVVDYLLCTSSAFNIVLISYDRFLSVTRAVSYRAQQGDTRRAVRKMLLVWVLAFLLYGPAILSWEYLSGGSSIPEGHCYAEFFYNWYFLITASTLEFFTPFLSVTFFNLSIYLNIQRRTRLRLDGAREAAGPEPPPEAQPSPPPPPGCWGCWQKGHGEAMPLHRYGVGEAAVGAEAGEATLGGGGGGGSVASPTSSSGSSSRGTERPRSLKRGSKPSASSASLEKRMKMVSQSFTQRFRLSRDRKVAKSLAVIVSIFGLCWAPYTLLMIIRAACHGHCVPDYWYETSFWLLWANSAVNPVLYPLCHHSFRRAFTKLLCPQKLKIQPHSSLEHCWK
Sodium-dependent noradrenaline transporter, sequence (P23975 whole entry): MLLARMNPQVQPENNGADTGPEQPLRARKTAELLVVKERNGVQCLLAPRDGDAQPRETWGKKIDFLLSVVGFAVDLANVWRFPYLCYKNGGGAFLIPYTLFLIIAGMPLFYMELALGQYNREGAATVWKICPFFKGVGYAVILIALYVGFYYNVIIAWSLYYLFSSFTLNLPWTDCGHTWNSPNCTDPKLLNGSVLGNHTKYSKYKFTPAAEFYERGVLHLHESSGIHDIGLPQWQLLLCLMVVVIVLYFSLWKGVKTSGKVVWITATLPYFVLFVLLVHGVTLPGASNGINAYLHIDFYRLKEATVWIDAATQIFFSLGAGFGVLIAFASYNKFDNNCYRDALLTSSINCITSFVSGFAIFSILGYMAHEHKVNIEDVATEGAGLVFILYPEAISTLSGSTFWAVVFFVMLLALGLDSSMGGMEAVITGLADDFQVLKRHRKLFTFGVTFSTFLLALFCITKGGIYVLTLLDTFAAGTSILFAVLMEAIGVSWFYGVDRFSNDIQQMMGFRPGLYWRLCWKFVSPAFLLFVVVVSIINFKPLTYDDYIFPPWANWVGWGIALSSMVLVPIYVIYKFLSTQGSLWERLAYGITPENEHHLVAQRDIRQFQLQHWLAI
Kappa-type opioid receptor, sequence (P41145 whole entry): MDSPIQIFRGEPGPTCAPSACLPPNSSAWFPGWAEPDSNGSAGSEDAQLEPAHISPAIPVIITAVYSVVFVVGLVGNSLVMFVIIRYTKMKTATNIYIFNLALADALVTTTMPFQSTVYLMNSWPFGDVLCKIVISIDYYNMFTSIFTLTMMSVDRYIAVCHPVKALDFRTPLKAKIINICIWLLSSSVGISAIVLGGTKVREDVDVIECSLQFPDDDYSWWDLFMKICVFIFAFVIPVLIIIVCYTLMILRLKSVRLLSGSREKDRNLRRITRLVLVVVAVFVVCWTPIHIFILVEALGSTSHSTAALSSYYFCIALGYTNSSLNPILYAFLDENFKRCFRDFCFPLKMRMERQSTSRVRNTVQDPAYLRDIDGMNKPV
Sodium-dependent dopamine transporter, sequence (Q01959 whole entry): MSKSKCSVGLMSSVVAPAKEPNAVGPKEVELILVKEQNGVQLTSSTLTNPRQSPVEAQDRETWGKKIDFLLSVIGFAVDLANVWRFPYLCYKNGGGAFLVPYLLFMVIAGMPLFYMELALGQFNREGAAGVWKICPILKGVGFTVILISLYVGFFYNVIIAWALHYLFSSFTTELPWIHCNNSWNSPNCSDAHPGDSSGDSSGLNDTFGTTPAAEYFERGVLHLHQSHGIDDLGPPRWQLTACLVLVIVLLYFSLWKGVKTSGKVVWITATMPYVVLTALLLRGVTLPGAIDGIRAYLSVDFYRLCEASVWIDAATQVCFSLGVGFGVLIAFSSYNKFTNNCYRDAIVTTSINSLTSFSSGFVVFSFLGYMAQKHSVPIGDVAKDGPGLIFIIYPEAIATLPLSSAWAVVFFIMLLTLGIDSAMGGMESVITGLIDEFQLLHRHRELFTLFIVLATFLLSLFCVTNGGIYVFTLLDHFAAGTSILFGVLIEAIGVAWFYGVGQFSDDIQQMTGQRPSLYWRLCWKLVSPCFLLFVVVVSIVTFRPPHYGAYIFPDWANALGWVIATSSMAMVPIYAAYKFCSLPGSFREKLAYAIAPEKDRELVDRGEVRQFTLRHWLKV

Turning to `c1ccn2c([C@@H]3CN4CCC[C@@H]4c4cc(OCCCN5CCOCC5)ccc43)cnc2c1`, at Histamine H3 receptor [1], the Kb is 3.16 nM. In addition, affinity on Histamine H3 receptor [2] was put at a Ki of 2 nM.

For the compound `c1cn(-c2ccc([C@@H]3CN4CCC[C@@H]4c4cc(OCCCN5CCOCC5)ccc43)cc2)cn1`, the Kb on Histamine H3 receptor [1] is 3.16 nM. The compound further had a Ki on Histamine H3 receptor [2] of 5.7 nM.

On to `c1ncc([C@@H]2CN3CCC[C@@H]3c3cc(OCCCN4CCOCC4)ccc32)s1`, for which, at Histamine H3 receptor [1], the Kb is 3.16 nM. On Histamine H3 receptor [2], this compound showed a Ki of 3.7 nM.

Regarding `c1ccc([C@@H]2CN3CCC[C@@H]3c3cc(OCCCN4CCOCC4)ccc32)nc1`, the Kb on Histamine H3 receptor [1] was 3.16 nM. Also, at Histamine H3 receptor [2], the affinity corresponds to a Ki of 2.7 nM.

With `c1cncc([C@@H]2CN3CCC[C@@H]3c3cc(OCCCN4CCCCC4)ccc32)c1`, the MRT amounted to 31.3 h in data set [3] and 6.57 h in data set [5]. Further, the Ki turned out to be 460 nM in data set [4], 74 nM in data set [8], 107 nM in [9] and 0.8 nM on Histamine H3 receptor [2]. Also, in [6], the Kp was found to be 0.75. In data set [7], this compound came in with a concentration at 0.25 h of 1430 nM. Also, the Activity in the data set on Rattus norvegicus [10] was determined as 500%; in the data set with Rattus norvegicus [11] it was 300%. Further, the Kb at Histamine H3 receptor [1] was 3.16 nM. For the same compound, in data set [12], the concentration at 2 h is 920 nM.

For the compound `c1ccc([C@@H]2CN3CCC[C@@H]3c3cc(OCCCN4CCCCC4)ccc32)nc1`, the Kb at Histamine H3 receptor [1] was 3.16 nM. At Histamine H3 receptor [2], this compound returned a Ki of 0.8 nM.

Take `c1csc([C@@H]2CN3CCC[C@@H]3c3cc(OCCCN4CCOCC4)ccc32)n1`: at Histamine H3 receptor [1], the Kb was 3.16 nM. At Histamine H3 receptor [2], this compound had a Ki of 3.3 nM.

With `c1cnn(-c2ccc([C@@H]3CN4CCC[C@@H]4c4cc(OCCCN5CCOCC5)ccc43)cc2)c1`, the Kb on Histamine H3 receptor [1] is 3.16 nM. For the same compound, on Histamine H3 receptor [2], the Ki was found to be 5.3 nM.

Regarding `c1cc([C@@H]2CN3CCC[C@@H]3c3cc(OCCCN4CCCCC4)ccc32)ccn1`, the Kb on Histamine H3 receptor [1] is 3.16 nM. Moreover, the affinity at Histamine H3 receptor [2] corresponds to a Ki of 1 nM.

Regarding `c1cc([C@@H]2CN3CCC[C@@H]3c3cc(OCCCN4CCOCC4)ccc32)[nH]n1`, at Histamine H3 receptor [1], the Kb was 3.16 nM. At Histamine H3 receptor [2], this compound registered a Ki of 4 nM.

In the case of `c1cnc([C@@H]2CN3CCC[C@@H]3c3cc(OCCCN4CCOCC4)ccc32)cn1`, at Histamine H3 receptor [1], the Kb is 3.16 nM. For the same compound, the Ki on Histamine H3 receptor [2] came to 4 nM.

As for `c1cc([C@@H]2CN3CCC[C@@H]3c3cc(OCCCN4CCOCC4)ccc32)cs1`, at Histamine H3 receptor [1], the Kb was 3.16 nM. On Histamine H3 receptor [2], this compound came in with a Ki of 3 nM.

For the compound `c1cncc([C@@H]2CN3CCC[C@@H]3c3cc(OCCCN4CCOCC4)ccc32)c1`, the Kb on Histamine H3 receptor [1] is 3.16 nM. Besides, the Ki at Histamine H3 receptor [2] amounted to 1.6 nM.
